ChEMBL document CHEMBL4418493, “N-hydroxyformamide compounds and compositions comprising them for use as BMP1, TLL1 and/or TLL2 inhibitors” (2018)

Tests used:
[1] = Drug metabolism in heparinized pooled human plasma at pH 7.5 assessed as conversion to active compound at 100 to 2000 ng/ml incubated for 4 by LC-MS/MS analysis; type: ADME, cell-free
[2] = Drug metabolism in heparinized pooled human plasma at pH 7.5 assessed as formation of (3-ethoxy-5-(5-((((R)-2-((R)-1-(N-hydroxyformamido)propyl)heptanamido)methyl)carbamoyl) furan-2-yl)phenyl)phosphonic acid at 100 to 2000 ng/ml incubated up to 4 or 24 hrs by LC-MS/MS analysis; type: ADME, cell-free; conditions: pH 7.5, 24 h
[3] = Stability in pH 7.96 assessed as compound purity level at 1 mg/ml heated to 40 degC and measured at 200 hrs by LC/MS analsysis; type: physicochemical; conditions: buffer, read-out: Stability
[4] = Reduction in mature collagen deposition levels in human cardiac fibroblasts incubated for 24 to 48 hrs by immunostaining based assay; type: functional
[5] = Drug metabolism in heparinized pooled human plasma at pH 7.5 assessed as formation of (S)-2-(2-ethoxy-4-(5-((((R)-2-((R)-1-(N-hydroxyformamido)propyl)heptanamido)methyl) carbamoyl)furan-2-yl)benzamido)succinic acid at 100 to 2000 ng/ml incubated up to 4 or 24 hrs by LC-MS/MS analysis; type: ADME, cell-free; conditions: pH 7.5, 24 h
[6] = Reduction in PICP levels in human cardiac fibroblasts incubated for 24 to 48 hrs by ELISA; type: functional
Tolloid-like protein 2 = biological target: T1, Tolloid-like protein 2 (Homo sapiens, UniProt Q9Y6L7); assay: Inhibition of C-terminal Avi-6x-His epitope tagged and N-terminal human RAGE signal sequence tagged recombinant human TLL2 (26 to 1015 amino acids) expressed in CHOE1A cells incubated for 60 mins with promyostatin peptide substrate by FRET based assay; type: cell-based
T1 sequence (Q9Y6L7 whole entry): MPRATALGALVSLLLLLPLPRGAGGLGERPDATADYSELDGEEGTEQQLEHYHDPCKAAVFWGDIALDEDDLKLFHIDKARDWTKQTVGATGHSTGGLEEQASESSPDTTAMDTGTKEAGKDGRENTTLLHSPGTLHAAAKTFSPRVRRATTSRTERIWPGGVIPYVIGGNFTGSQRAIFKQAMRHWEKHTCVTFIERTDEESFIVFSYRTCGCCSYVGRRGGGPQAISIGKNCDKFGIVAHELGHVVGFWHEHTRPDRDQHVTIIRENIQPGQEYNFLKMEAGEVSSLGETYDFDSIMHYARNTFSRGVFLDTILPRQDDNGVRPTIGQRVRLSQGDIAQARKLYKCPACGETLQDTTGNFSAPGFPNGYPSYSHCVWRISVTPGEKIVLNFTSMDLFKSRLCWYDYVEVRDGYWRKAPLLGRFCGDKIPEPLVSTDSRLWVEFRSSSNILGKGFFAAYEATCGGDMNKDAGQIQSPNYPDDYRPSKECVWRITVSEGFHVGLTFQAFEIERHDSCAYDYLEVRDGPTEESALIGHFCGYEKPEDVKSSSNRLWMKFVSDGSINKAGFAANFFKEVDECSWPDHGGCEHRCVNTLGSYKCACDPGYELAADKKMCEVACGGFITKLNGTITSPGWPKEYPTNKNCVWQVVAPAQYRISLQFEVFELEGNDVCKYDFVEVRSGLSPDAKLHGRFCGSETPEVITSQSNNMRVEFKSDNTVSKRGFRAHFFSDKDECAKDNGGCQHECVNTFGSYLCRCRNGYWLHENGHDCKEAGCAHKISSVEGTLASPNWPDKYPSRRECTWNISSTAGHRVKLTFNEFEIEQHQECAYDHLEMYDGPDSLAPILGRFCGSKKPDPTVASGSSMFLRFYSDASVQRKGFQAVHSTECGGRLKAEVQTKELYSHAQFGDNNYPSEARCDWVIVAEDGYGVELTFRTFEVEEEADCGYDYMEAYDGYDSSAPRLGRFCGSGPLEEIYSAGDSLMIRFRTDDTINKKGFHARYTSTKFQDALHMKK

Tolloid-like protein 1 = Tolloid-like protein 1 (Homo sapiens, UniProt O43897, I156V/N221S/V284A); assay: Inhibition of recombinant human TLL1 I156V/N221S/V284A mutant expressed in CHOE1A cells pre-incubated for 10 mins before promyostatin peptide substrate addition and measured after 60 mins by FRET based assay; type: cell-based
Tolloid-like protein 1, sequence (O43897 148-1013 I156V/N221S/V284A limits assumed): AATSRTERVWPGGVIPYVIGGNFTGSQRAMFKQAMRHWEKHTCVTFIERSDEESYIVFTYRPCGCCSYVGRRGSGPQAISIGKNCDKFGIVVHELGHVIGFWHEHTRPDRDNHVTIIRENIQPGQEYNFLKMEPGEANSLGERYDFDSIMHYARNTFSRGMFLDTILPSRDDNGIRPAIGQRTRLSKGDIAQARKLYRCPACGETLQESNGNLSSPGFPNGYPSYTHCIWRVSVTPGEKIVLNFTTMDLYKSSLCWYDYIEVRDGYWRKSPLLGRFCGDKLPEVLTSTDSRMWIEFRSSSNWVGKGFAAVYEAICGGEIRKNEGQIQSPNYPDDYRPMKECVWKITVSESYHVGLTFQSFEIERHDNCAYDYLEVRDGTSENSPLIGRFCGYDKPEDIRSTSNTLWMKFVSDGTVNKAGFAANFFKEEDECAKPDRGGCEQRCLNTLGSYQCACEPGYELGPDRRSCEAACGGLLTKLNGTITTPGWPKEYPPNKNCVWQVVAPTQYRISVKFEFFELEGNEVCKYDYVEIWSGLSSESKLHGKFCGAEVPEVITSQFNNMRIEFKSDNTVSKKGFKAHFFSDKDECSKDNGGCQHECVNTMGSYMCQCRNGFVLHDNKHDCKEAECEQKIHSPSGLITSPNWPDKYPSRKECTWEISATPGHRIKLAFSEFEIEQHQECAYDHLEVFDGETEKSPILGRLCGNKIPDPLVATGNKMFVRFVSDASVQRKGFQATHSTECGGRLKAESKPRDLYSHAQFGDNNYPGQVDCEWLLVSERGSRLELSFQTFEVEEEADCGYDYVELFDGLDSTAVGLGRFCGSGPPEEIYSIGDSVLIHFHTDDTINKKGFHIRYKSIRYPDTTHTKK

[7] = biological target: T2, Bone morphogenetic protein 1 (Homo sapiens, UniProt P13497); assay: Inhibition of C-terminal FLAG-6x-His epitope tagged and N-terminal human RAGE signal sequence tagged human BMP1 (121 to 721 amino acids) expressed in CHO-E1a cells pre-incubated for 10 mins before promyostatin peptide substrate addition and measured after 60 mins using 0.5 nM BMP1 by FRET based assay; type: cell-based
T2 sequence (P13497 whole entry): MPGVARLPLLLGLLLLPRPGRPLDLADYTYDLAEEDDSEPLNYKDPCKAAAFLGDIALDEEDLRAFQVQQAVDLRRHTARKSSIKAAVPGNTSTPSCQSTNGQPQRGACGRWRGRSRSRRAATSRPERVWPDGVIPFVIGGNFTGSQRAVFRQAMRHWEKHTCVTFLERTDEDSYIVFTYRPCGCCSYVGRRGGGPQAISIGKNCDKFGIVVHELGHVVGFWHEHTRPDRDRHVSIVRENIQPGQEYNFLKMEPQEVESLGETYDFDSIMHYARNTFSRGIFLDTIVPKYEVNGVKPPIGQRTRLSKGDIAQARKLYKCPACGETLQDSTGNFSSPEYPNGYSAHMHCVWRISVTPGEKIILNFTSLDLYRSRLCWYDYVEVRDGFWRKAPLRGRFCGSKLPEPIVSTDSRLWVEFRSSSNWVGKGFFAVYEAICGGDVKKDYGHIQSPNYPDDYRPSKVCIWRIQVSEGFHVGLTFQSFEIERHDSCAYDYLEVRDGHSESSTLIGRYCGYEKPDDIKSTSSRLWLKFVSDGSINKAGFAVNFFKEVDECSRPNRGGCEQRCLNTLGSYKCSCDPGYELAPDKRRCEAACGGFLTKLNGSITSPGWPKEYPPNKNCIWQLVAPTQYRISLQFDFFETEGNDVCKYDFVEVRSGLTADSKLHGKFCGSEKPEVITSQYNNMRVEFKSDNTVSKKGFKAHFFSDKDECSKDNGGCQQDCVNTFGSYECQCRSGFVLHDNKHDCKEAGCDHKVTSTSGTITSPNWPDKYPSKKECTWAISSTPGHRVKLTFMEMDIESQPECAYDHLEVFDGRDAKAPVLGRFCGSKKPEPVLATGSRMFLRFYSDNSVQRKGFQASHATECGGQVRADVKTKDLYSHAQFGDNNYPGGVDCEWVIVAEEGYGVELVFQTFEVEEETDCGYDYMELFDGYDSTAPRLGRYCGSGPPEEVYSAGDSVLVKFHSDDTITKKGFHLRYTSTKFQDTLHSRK

[8] = Drug metabolism in heparinized pooled human plasma at pH 7.5 assessed as formation of (S)-2-(2-(carboxymethoxy)-4-(5-((((R)-2-((R)-1-(N-hydroxyformamido)propyl)heptanamido)methyl)carbamoyl)furan-2-yl)benzamido)succinic acid at 100 to 2000 ng/ml incubated up to 4 or 24 hrs by LC-MS/MS analysis; type: ADME, cell-free; conditions: pH 7.5, 24 h

Row | Compound | Drug metabolism [1] [%] | Drug metabolism [2] | remaining at 200 h, 1 mg/ml [3] [%] | IC50 [4] [nM] | Drug metabolism [5] | IC50 [6] [nM] | IC50 (Tolloid-like protein 2) [nM] | IC50 (Tolloid-like protein 1) [nM] | IC50 [7] [nM] | Drug metabolism [8]
1 | CCCCC[C@@H](C(=O)NCNC(=O)c1ccc(-c2cc(OCC)cc(P(=O)(O)O)c2)o1)[C@@H](CC)N(C=O)OC(=O)Cc1ccccc1 | > 10 | Metabolite_Detected | < 80 | – | – | – | – | – | – | –
2 | CCCCC[C@@H](C(=O)NCNC(=O)c1ccc(-c2cc(OCC)cc(P(=O)(O)O)c2)o1)[C@@H](CC)N(C=O)OCOC(=O)C(C)(C)C | > 10 | Metabolite_Detected | < 80 | – | – | – | – | – | – | –
3 | CCCCC[C@@H](C(=O)NCNC(=O)c1ccc(-c2ccc(C(=O)N[C@@H](CC(=O)O)C(=O)O)c(OCC)c2)o1)[C@@H](CC)N(C=O)OC(=O)C(C)(C)C | > 10 | – | < 80 | < 1000 | Metabolite_Detected | < 3980 | – | – | – | –
4 | CCCCC[C@@H](C(=O)NCNC(=O)c1ccc(-c2cc(OCC)cc(P(=O)(O)Oc3ccccc3)c2)o1)[C@@H](CC)N(O)C=O | – | – | – | – | – | < 398 | < 398 | < 251 | < 316 | –
5 | CCCCC[C@@H](C(=O)NCNC(=O)c1ccc(-c2ccc(C(=O)N[C@@H](CC(=O)O)C(=O)OCC)c(OCC)c2)o1)[C@@H](CC)N(O)C=O | – | – | – | < 1000 | – | 398 to 3980 | 398 to 794 | 251 to 398 | 126 to 316 | –
6 | CCCCC[C@@H](C(=O)NCNC(=O)c1ccc(-c2cc(OCC)cc(P(=O)(Oc3ccccc3)Oc3ccccc3)c2)o1)[C@@H](CC)N(O)C=O | – | – | – | – | – | < 3980 | – | – | 126 to 316 | –
7 | CCCCC[C@@H](C(=O)NCNC(=O)c1ccc(-c2ccc(C(=O)OCC)cc2)o1)[C@@H](CC)N(O)C=O | – | – | – | – | – | 398 to 3980 | 398 to 794 | 251 to 398 | 126 to 316 | –
8 | CCCCC[C@@H](C(=O)NCNC(=O)c1ccc(-c2ccc(C(=O)N[C@@H](CC(=O)O)C(=O)OC(C)(C)C)c(OCC)c2)o1)[C@@H](CC)N(O)C=O | – | – | – | – | – | 398 to 3980 | 398 to 794 | 251 to 398 | 126 to 316 | –
9 | CCCCC[C@@H](C(=O)NCNC(=O)c1ccc(-c2cc(OCC)cc(P(=O)(O)O)c2)o1)[C@@H](CC)N(C=O)OC(=O)c1ccccc1 | > 10 | Metabolite_Detected | < 80 | – | – | – | – | – | – | –
10 | CCCCC[C@@H](C(=O)NCNC(=O)c1ccc(-c2ccc(C(=O)OCCN(C)C)cc2)o1)[C@@H](CC)N(O)C=O | – | – | – | – | – | 398 to 3980 | 398 to 794 | 251 to 398 | 126 to 316 | –
11 | CCCCC[C@@H](C(=O)NCNC(=O)c1ccc(-c2cc(OCC)cc(P(=O)(O)OCOC(=O)OC(C)C)c2)o1)[C@@H](CC)N(O)C=O | – | – | – | – | – | < 398 | < 398 | < 251 | < 316 | –
12 | CCCCC[C@@H](C(=O)NCNC(=O)c1ccc(-c2ccc(C(=O)N[C@@H](CC(=O)OCC)C(=O)OCC)c(OCC)c2)o1)[C@@H](CC)N(O)C=O | – | – | – | – | – | 398 to 3980 | 398 to 794 | 251 to 398 | 126 to 316 | –
13 | CCCCC[C@@H](C(=O)NCNC(=O)c1ccc(-c2ccc(C(=O)N[C@@H](CC(=O)O)C(=O)OCOC(=O)c3ccccc3)c(OCC)c2)o1)[C@@H](CC)N(O)C=O | – | – | – | – | – | < 398 | < 398 | < 251 | < 316 | –
14 | CCCCC[C@@H](C(=O)NCNC(=O)c1ccc(-c2ccc(C(=O)N[C@@H](CC(=O)O)C(=O)O)c(OCC(=O)O)c2)o1)[C@@H](CC)N(C=O)OC(=O)OC(C)(C)C | > 10 | – | < 80 | – | – | < 3980 | – | – | – | Metabolite_Detected
15 | CCCCC[C@@H](C(=O)NCNC(=O)c1ccc(-c2cc(OCC)cc(P(=O)(O)O)c2)o1)[C@@H](CC)N(C=O)OCc1oc(=O)oc1C | > 10 | Metabolite_Detected | < 80 | – | – | < 3980 | – | – | – | –
16 | CCCCC[C@@H](C(=O)NCNC(=O)c1ccc(-c2cc(OCC)cc(P(=O)(OCOC(C)=O)OCOC(C)=O)c2)o1)[C@@H](CC)N(O)C=O | – | Metabolite_Detected | – | – | – | 398 to 3980 | 398 to 794 | 251 to 398 | 126 to 316 | –
17 | CCCCC[C@@H](C(=O)NCNC(=O)c1ccc(-c2ccc(C(=O)OCCCC)cc2)o1)[C@@H](CC)N(O)C=O | – | – | – | – | – | 398 to 3980 | 398 to 794 | 251 to 398 | 126 to 316 | –
18 | CCCCC[C@@H](C(=O)NCNC(=O)c1ccc(-c2ccc(C(=O)N[C@@H](CC(=O)O)C(=O)O)c(OCC(=O)O)c2)o1)[C@@H](CC)N(C=O)OC(=O)c1cccnc1 | > 10 | – | < 80 | – | – | < 3980 | – | – | – | Metabolite_Detected
